Results published in patent publication US10409869B2, “(R)- and (S)-1-(3-(3-N,N-dimethylaminocarbonyl)phenoxyl-4-nitrophenyl)-1-ethyl-N,N'-bis (ethylene)phosphoramidate, compositions and methods for their use and preparation” (OBI Pharma, Inc., priority 2015, dated 2019).

How the values were obtained:
[1] = Plasma concentration and TK after 30-min IV infusion at 2 mg/kg; assay type: in vivo, Cynomolgus monkeys; conditions: for AUC(0-inf) / AUC(0-t): Cynomolgus, cynomolgus monkey, plasma, iv, 2 mg/kg
Method: (§1) TH 3423 and TH 3424 were tested in […] naïve monkeys (1 male and one female for each compound at 2 mg/kg) with 30-min intravenous infusion, TK sampling: on Day 1 and Day 15: 0.25, 0.5, 0.75, 1 and 2 hr post infusion initiation. Serum chemistry and hematology: pre-dose (Day 1), day 5, day 8 (pre-dose), day 15 (pre-dose), day 22 and day 28. Clinical observation: Daily during the study, total 35 days. Food consumption: Daily during the study, total 35 days. Bodyweight measurement: Twice weekly for five weeks.

[2] = Hematology in monkeys, 2 mg/kg 30-min IV infusion; assay type: in vivo, Cynomolgus monkeys
Method: as §1

## C[C@@H](OP(=O)(N1CC1)N1CC1)c1ccc([N+](=O)[O-])c(Oc2cccc(C(=O)N(C)C)c2)c1 (single isomer, unassigned) [TH3423]
[1]; 2 hr, female
  Plasma concentration: BQL
[1]; both sexes, Mean
  AUC(0-inf): 770 ng·h/mL
  AUC(0-t): 766 ng·h/mL
[1]; female
  AUC(0-inf): 766 ng·h/mL
  AUC(0-t): 758 ng·h/mL
[1]; male
  AUC(0-inf): 774 ng·h/mL
  AUC(0-t): 773 ng·h/mL
[2]; female, Day 1 (pre-dose)
  % BASO: 0.0%
  % EOS: 2.3%
  % MONO: 4.8%
  % NEUT: 47.9%
  HCT: 35%
  HGB: 112 g/L
  LYM: 45%
  MCH: 24 pg
  MCHC: 320 g/L
  MCV: 74.9 fL
  MPV: 10.6 fL
  PCT: 0.338%
  PDW: 14.8
  PLT: 3.18e+11 L⁻¹
  RBC: 4.67e+12 L⁻¹
  RDW-CV: 11.8%
  RDW-SD: 37.2 fL
  WBC: 6.7e+09 L⁻¹
  abs_basos: 0 L⁻¹
  abs_eos: 1.5e+08 L⁻¹
  abs_lymphs: 3.02e+09 L⁻¹
  abs_monos: 3.2e+08 L⁻¹
  abs_neuts: 3.21e+09 L⁻¹
[2]; female, Day 8 (pre-dose)
  % BASO: 0.20%
  % EOS: 2.30%
  % MONO: 0.00%
  % NEUT: 61.90%
  HCT: 39.80%
  HGB: 128.00 g/L
  LYM: 35.60%
  MCH: 24.60 pg
  MCHC: 322.00 g/L
  MCV: 76.30 fL
  MPV: 9.60 fL
  PCT: 0.67%
  PDW: 15.40
  PLT: 6.99e+11 L⁻¹
  RBC: 5.21e+12 L⁻¹
  RDW-CV: 12.30%
  RDW-SD: 39.50 fL
  WBC: 1.035e+10 L⁻¹
  abs_basos: 2e+07 L⁻¹
  abs_eos: 2.5e+08 L⁻¹
  abs_lymphs: 3.68e+09 L⁻¹
  abs_monos: 0 L⁻¹
  abs_neuts: 6.4e+09 L⁻¹
[2]; female, Day 15 (pre-dose)
  % BASO: 0.10%
  % EOS: 2.70%
  % MONO: 6.30%
  % NEUT: 63.0%
  HCT: 33.9%
  HGB: 115 g/L
  LYM: 27.90%
  MCH: 24.0 pg
  MCHC: 339 g/L
  MCV: 70.6 fL
  MPV: 8.70 fL
  PCT: 0.46%
  PDW: 15.10
  PLT: 5.33e+11 L⁻¹
  RBC: 4.8e+12 L⁻¹
  RDW-CV: 10.9%
  RDW-SD: 32.3 fL
  WBC: 9.56e+09 L⁻¹
  abs_basos: 1e+07 L⁻¹
  abs_eos: 2.6e+08 L⁻¹
  abs_lymphs: 2.67e+09 L⁻¹
  abs_monos: 6e+08 L⁻¹
  abs_neuts: 6.02e+09 L⁻¹
[2]; male, Day 1 (pre-dose)
  % BASO: 0.0%
  % EOS: 2.4%
  % MONO: 5.5%
  % NEUT: 55.4%
  HCT: 40.8%
  HGB: 132 g/L
  LYM: 36.7%
  MCH: 25.4 pg
  MCHC: 324 g/L
  MCV: 78.3 fL
  MPV: 10.2 fL
  PCT: 0.365%
  PDW: 15.1
  PLT: 3.58e+11 L⁻¹
  RBC: 5.2e+12 L⁻¹
  RDW-CV: 11.6%
  RDW-SD: 38.2 fL
  WBC: 5.33e+09 L⁻¹
  abs_basos: 0 L⁻¹
  abs_eos: 1.3e+08 L⁻¹
  abs_lymphs: 1.95e+09 L⁻¹
  abs_monos: 2.9e+08 L⁻¹
  abs_neuts: 2.96e+09 L⁻¹
[2]; male, Day 8 (pre-dose)
  % BASO: 0.7%
  % EOS: 3.0%
  % MONO: 0.0%
  % NEUT: 80.9%
  HCT: 44.70%
  HGB: 146.00 g/L
  LYM: 15.4%
  MCH: 24.90 pg
  MCHC: 327.00 g/L
  MCV: 76.20 fL
  MPV: 10.60 fL
  PCT: 0.52%
  PDW: 15.70
  PLT: 4.9e+11 L⁻¹
  RBC: 5.86e+12 L⁻¹
  RDW-CV: 11.90%
  RDW-SD: 38.00 fL
  WBC: 1.166e+10 L⁻¹
  abs_basos: 8e+07 L⁻¹
  abs_eos: 3.5e+08 L⁻¹
  abs_lymphs: 1.79e+09 L⁻¹
  abs_monos: 0 L⁻¹
  abs_neuts: 9.44e+09 L⁻¹

## C[C@H](OP(=O)(N1CC1)N1CC1)c1ccc([N+](=O)[O-])c(Oc2cccc(C(=O)N(C)C)c2)c1 (single isomer, unassigned) [TH3424]
[1]; both sexes, Mean
  AUC(0-inf): 1460 ng·h/mL
  AUC(0-t): 1460 ng·h/mL
[1]; female
  AUC(0-inf): 1200 ng·h/mL
  AUC(0-t): 1200 ng·h/mL
[1]; male
  AUC(0-inf): 1730 ng·h/mL
  AUC(0-t): 1720 ng·h/mL
[2]; female, Day 1 (pre-dose)
  % BASO: 0.1%
  % EOS: 3.3%
  % MONO: 0.9%
  % NEUT: 72.8%
  HCT: 35.7%
  HGB: 118 g/L
  LYM: 22.9%
  MCH: 25.4 pg
  MCHC: 331 g/L
  MCV: 76.8 fL
  MPV: 13 fL
  PCT: 0.277%
  PDW: 15.4
  PLT: 2.13e+11 L⁻¹
  RBC: 4.65e+12 L⁻¹
  RDW-CV: 11.5%
  RDW-SD: 37.4 fL
  WBC: 1.164e+10 L⁻¹
  abs_basos: 1e+07 L⁻¹
  abs_eos: 3.9e+08 L⁻¹
  abs_lymphs: 2.66e+09 L⁻¹
  abs_monos: 1.1e+08 L⁻¹
  abs_neuts: 8.47e+09 L⁻¹
[2]; female, Day 8 (pre-dose)
  % EOS: 1.50%
  % MONO: 0.20%
  % NEUT: 49.10%
  HCT: 39.30%
  HGB: 130.00 g/L
  LYM: 18.90%
  MCH: 25.30 pg
  MCHC: 331.00 g/L
  MCV: 76.30 fL
  MPV: 12.80 fL
  PCT: 0.50%
  PDW: 15.50
  PLT: 3.9e+11 L⁻¹
  RBC: 5.15e+12 L⁻¹
  RDW-CV: 11.20%
  RDW-SD: 36.20 fL
  WBC: 1.691e+10 L⁻¹
  abs_basos: 5.13e+09 L⁻¹
  abs_eos: 2.6e+08 L⁻¹
  abs_lymphs: 3.2e+09 L⁻¹
  abs_monos: 3e+07 L⁻¹
  abs_neuts: 8.29e+09 L⁻¹
[2]; female, Day 15 (pre-dose)
  % BASO: 0.90%
  % EOS: 1.70%
  % MONO: 3.00%
  % NEUT: 80.8%
  HCT: 36.3%
  HGB: 125 g/L
  LYM: 13.60%
  MCH: 25.3 pg
  MCHC: 344 g/L
  MCV: 73.5 fL
  MPV: 12.5 fL
  PCT: 0.275%
  PDW: 16.2
  PLT: 2.21e+11 L⁻¹
  RBC: 4.94e+12 L⁻¹
  RDW-CV: 11.0%
  RDW-SD: 34.1 fL
  WBC: 2.07e+10 L⁻¹
  abs_basos: 1.9e+08 L⁻¹
  abs_eos: 3.7e+08 L⁻¹
  abs_lymphs: 2.8e+09 L⁻¹
  abs_monos: 6.2e+08 L⁻¹
  abs_neuts: 1.67e+10 L⁻¹
[2]; male, Day 1 (pre-dose)
  % BASO: 0.0%
  % EOS: 2.6%
  % MONO: 0.1%
  % NEUT: 58.4%
  HCT: 34.9%
  HGB: 117 g/L
  LYM: 38.9%
  MCH: 25.7 pg
  MCHC: 335 g/L
  MCV: 76.7 fL
  MPV: 11.1 fL
  PCT: 0.267%
  PDW: 15.5
  PLT: 2.4e+11 L⁻¹
  RBC: 4.55e+12 L⁻¹
  RDW-CV: 11.8%
  RDW-SD: 38.1 fL
  WBC: 4.71e+09 L⁻¹
  abs_basos: 0 L⁻¹
  abs_eos: 1.2e+08 L⁻¹
  abs_lymphs: 1.84e+09 L⁻¹
  abs_monos: 0 L⁻¹
  abs_neuts: 2.75e+09 L⁻¹
[2]; male, Day 8 (pre-dose)
  % BASO: 5.30%
  % EOS: 1.10%
  % MONO: 13.10%
  % NEUT: 34.60%
  HCT: 35.20%
  HGB: 117.00 g/L
  LYM: 45.90%
  MCH: 25.50 pg
  MCHC: 332.00 g/L
  MCV: 76.70 fL
  MPV: 10.30 fL
  PCT: 0.51%
  PDW: 15.30
  PLT: 4.96e+11 L⁻¹
  RBC: 4.59e+12 L⁻¹
  RDW-CV: 11.50%
  RDW-SD: 37.20 fL
  WBC: 9.15e+09 L⁻¹
  abs_basos: 4.9e+08 L⁻¹
  abs_eos: 1e+08 L⁻¹
  abs_lymphs: 4.19e+09 L⁻¹
  abs_monos: 1.21e+09 L⁻¹
  abs_neuts: 3.16e+09 L⁻¹
[2]; male, Day 15 (pre-dose)
  % BASO: 0.10%
  % EOS: 3.10%
  % MONO: 4.40%
  % NEUT: 65.7%
  HCT: 37.4%
  HGB: 127 g/L
  LYM: 26.70%
  MCH: 25.3 pg
  MCHC: 340 g/L
  MCV: 74.5 fL
  MPV: 9.5 fL
  PCT: 0.593%
  PDW: 15.4
  PLT: 6.23e+11 L⁻¹
  RBC: 5.02e+12 L⁻¹
  RDW-CV: 11.5%
  RDW-SD: 36.3 fL
  WBC: 1.326e+10 L⁻¹
  abs_basos: 2e+07 L⁻¹
  abs_eos: 4.1e+08 L⁻¹
  abs_lymphs: 3.54e+09 L⁻¹
  abs_monos: 5.9e+08 L⁻¹
  abs_neuts: 8.7e+09 L⁻¹
